Test results taken from ChEMBL document CHEMBL4765344, “Expanding the anticancer potential of 1,2,3-triazoles via simultaneously targeting Cyclooxygenase-2, 15-lipoxygenase and tumor-associated carbonic anhydrases” (Eur J Med Chem, 2020).
The source made the active and inactive calls. No cut-off for these calls is given here.

Key:
[1] = Inhibition of soya bean 15-LOX; parameters: species or system Glycine max
THP-1 = experiment: Cytotoxicity against PMA/LPS-challenged human THP1 cells assessed as reduction in cell viability incubated for 24 hrs by MTS assay; type: functional, cell-based; conditions: THP-1, 24 h
HT-29 = experiment: Cytotoxicity against human HT-29 cells assessed as reduction in cell viability incubated for 24 hrs by MTS assay; type: functional, cell-based; conditions: HT-29, 24 h
[2] = target: T1, Prostaglandin G/H synthase 1 (Ovis aries, UniProt P05979); experiment: Inhibition of ovine COX1 by colorimetric analysis
T1 sequence (P05979 whole entry): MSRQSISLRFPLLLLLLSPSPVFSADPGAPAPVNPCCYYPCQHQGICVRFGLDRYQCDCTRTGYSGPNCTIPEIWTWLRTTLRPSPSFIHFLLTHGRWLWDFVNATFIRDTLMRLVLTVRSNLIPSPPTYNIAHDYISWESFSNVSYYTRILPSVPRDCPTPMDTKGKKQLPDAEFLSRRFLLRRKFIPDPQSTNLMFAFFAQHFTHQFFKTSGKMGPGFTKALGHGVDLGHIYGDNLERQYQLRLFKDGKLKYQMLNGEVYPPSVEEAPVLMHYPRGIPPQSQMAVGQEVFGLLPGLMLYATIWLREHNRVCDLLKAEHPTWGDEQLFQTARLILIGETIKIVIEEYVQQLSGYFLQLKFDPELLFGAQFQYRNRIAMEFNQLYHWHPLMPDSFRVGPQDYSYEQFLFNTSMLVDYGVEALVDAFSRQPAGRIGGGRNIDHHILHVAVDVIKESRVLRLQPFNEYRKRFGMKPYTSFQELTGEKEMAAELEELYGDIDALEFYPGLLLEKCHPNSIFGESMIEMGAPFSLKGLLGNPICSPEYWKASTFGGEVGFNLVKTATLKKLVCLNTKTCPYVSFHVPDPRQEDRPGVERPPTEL

Carbonic anhydrase 9 = Carbonic anhydrase 9 (Homo sapiens, UniProt Q16790); experiment: Inhibition of human CA9 by stopped-flow carbon dioxide hydration assay
WI-38 = experiment: Cytotoxicity against human WI-38 cells assessed as reduction in cell viability after 72 hrs by SRB assay; type: cell-based; conditions: WI-38, 72 h
MCF7 [3] = experiment: Antiproliferative activity against human MCF-7 cells assessed as inhibition of cell growth at 100 microM measured after 72 hrs by SRB assay; type: functional
HepG2 [4] = experiment: Antiproliferative activity against human HepG2 cells assessed as inhibition of cell growth at 100 microM measured after 72 hrs by SRB assay; type: functional
Carbonic anhydrase 1 = Carbonic anhydrase 1 (Homo sapiens, UniProt P00915); experiment: Inhibition of human CA1 by stopped-flow carbon dioxide hydration assay
Carbonic anhydrase 1, sequence (P00915 whole entry): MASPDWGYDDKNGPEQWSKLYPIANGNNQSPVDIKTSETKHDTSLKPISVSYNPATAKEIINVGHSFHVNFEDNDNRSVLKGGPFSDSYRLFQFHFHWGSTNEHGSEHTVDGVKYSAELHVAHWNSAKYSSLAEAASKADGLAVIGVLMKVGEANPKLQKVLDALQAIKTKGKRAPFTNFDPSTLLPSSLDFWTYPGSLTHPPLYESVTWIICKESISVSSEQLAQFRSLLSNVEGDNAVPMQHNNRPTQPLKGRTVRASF

A549 [5] = experiment: Antiproliferative activity against human A549 cells assessed as inhibition of cell growth at 100 microM measured after 72 hrs by SRB assay; type: functional
Carbonic anhydrase 12 = Carbonic anhydrase 12 (Homo sapiens, UniProt O43570); experiment: Inhibition of human CA12 by stopped-flow carbon dioxide hydration assay
Carbonic anhydrase 12, sequence (O43570 whole entry): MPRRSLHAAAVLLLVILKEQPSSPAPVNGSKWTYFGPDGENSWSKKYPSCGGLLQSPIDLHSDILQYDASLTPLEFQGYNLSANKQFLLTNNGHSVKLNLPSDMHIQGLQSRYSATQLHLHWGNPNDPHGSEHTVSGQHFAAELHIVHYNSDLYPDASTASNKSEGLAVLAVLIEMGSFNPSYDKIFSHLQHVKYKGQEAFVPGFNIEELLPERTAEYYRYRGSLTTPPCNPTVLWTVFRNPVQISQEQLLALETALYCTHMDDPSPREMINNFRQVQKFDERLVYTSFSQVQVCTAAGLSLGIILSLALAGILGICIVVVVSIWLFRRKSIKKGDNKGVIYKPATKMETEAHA

HepG2 [6] = experiment: Antiproliferative activity against human HepG2 cells assessed as cell growth inhibition measured after 72 hrs by SRB assay; type: functional, cell-based; conditions: HepG2, 72 h
Carbonic anhydrase 2 = Carbonic anhydrase 2 (Homo sapiens, UniProt P00918); experiment: Inhibition of human CA2 by stopped-flow carbon dioxide hydration assay
A549 [7] = experiment: Antiproliferative activity against human A549 cells assessed as cell growth inhibition measured after 72 hrs by SRB assay; type: functional, cell-based; conditions: A549, 72 h
MCF7 [8] = experiment: Antiproliferative activity against human MCF-7 cells assessed as cell growth inhibition measured after 72 hrs by SRB assay; type: functional, cell-based; conditions: MCF7, 72 h
A549 [9] = experiment: Induction of apoptosis in human A549 cells assessed as fold change in Bax expression at IC50 by ELISA relative to control; type: functional
A549 [10] = experiment: Induction of apoptosis in human A549 cells assessed as Bcl2 expression at IC50 by ELISA (reference value: 9.04 +/-0.1 ng/ml); type: functional
A549 [11] = experiment: Induction of apoptosis in human A549 cells assessed as total apoptotic cells at IC50 measured after 24 hrs by Annexin V-FITC/propidium iodide staining based flow cytometry (reference value: 0.92%); type: functional
A549 [12] = experiment: Induction of apoptosis in human A549 cells assessed as Bax expression at IC50 by ELISA (reference value: 42.16 +/-6.2 pg/ml); type: functional
A549 [13] = experiment: Induction of apoptosis in human A549 cells assessed as caspase-9 expression at IC50 by ELISA (reference value: […] +/- […] ng/ml); type: functional
A549 [14] = experiment: Induction of apoptosis in human A549 cells assessed as late apoptotic cells at IC50 measured after 24 hrs by annexin V-FITC staining based flow cytometry (reference value: […]); type: functional
A549 [15] = experiment: Induction of cell cycle arrest in human A549 cells assessed as accumulation at S phase at IC50 measured after 24 hrs by propidium iodide/RNase staining based flow cytometry (reference value: 31.88%); type: functional
A549 [16] = experiment: Induction of apoptosis in human A549 cells assessed as early apoptotic cells at IC50 measured after 24 hrs by annexin V-FITC staining based flow cytometry (reference value: 0.63%); type: functional
A549 [17] = experiment: Induction of apoptosis in human A549 cells assessed as fold change in Bcl2 expression at IC50 by ELISA relative to control; type: functional
A549 [18] = experiment: Induction of cell cycle arrest in human A549 cells assessed as accumulation at pre-G1 phase at IC50 measured after 24 hrs by propidium iodide/RNase staining based flow cytometry (reference value: 1.93%); type: functional
A549 [19] = experiment: Induction of apoptosis in human A549 cells assessed as fold change in caspase-9 expression at IC50 by ELISA relative to control; type: functional
A549 [20] = experiment: Induction of apoptosis in human A549 cells assessed as necrotic cells at IC50 measured after 24 hrs by annexin V-FITC staining based flow cytometry (reference value: 1.01%); type: functional
A549 [21] = experiment: Induction of cell cycle arrest in human A549 cells assessed as accumulation at G0/G1 phase at IC50 measured after 24 hrs by propidium iodide/RNase staining based flow cytometry (reference value: 58.26%); type: functional
A549 [22] = experiment: Induction of cell cycle arrest in human A549 cells assessed as accumulation at G2/M phase at IC50 measured after 24 hrs by propidium iodide/RNase staining based flow cytometry (reference value: 9.86%); type: functional

Structure (SMILES)	IC50 [1]	IC50 [2]	Ki (Carbonic anhydrase 9)	Ki (Carbonic anhydrase 1)	Ki (Carbonic anhydrase 12)	Ki (Carbonic anhydrase 2)	IC50 (WI-38)	inhibition at 100 µM (MCF7 [3])	inhibition at 100 µM (HepG2 [4])	inhibition at 100 µM (A549 [5])	further results
O=c1c(O)c(-c2ccc(O)c(O)c2)oc2cc(O)cc(O)c12 [QUERCETIN]	3.34 µM										
O=C(O)Cc1ccccc1Nc1c(Cl)cccc1Cl [DICLOFENAC SODIUM]											IC50 (THP-1): 201 µM; IC50 (HT-29): 137 µM
C/C(=N\NC(N)=S)c1nnn(-c2ccc(S(=O)(=O)Nc3nccs3)cc2)c1C	1.69 µM	10.3 µM	> 100 µM	> 100 µM	> 100 µM		458 µM	20.7%	22.1%	11.3%	
C/C(=N\Nc1nc(-c2ccc(Cl)cc2)cs1)c1nnn(-c2ccc(S(=O)(=O)Nc3nccs3)cc2)c1C	1.19 µM	14.2 µM	> 100 µM	> 100 µM	> 100 µM	> 100 µM	468 µM	39.9%	56%	51.1%	IC50 (HepG2 [6]): 89.5 µM; IC50 (A549 [7]): 99.3 µM
Cc1c(-c2nn(-c3ccccc3)cc2/C=N/O)nnn1-c1ccc(F)cc1	1.98 µM	10.9 µM	> 100 µM	> 100 µM	> 100 µM	> 100 µM	393 µM	98.2%	89%	92.4%	IC50 (HepG2 [6]): 31.1 µM; IC50 (A549 [7]): 27 µM; IC50 (MCF7 [8]): 5.32 µM
Cc1ccc(-c2cc(C(F)(F)F)nn2-c2ccc(S(N)(=O)=O)cc2)cc1 [CELECOXIB]							433 µM	89.9%	77.9%	86.2%	IC50 (HepG2 [6]): 0.36 µM; IC50 (A549 [7]): 17.5 µM; IC50 (MCF7 [8]): 2.56 µM
Cc1c(-c2nn(-c3ccccc3)cc2/C=N/O)nnn1-c1ccc(Cl)cc1	1.47 µM	12.9 µM	> 100 µM	> 100 µM	> 100 µM	> 100 µM	402 µM	97.8%	79%	69.7%	IC50 (HepG2 [6]): 26.5 µM; IC50 (A549 [7]): 55.7 µM; IC50 (MCF7 [8]): 22 µM
C/C(=N\Nc1nc(-c2ccc(Cl)cc2)cs1)c1nnn(-c2ccc(S(N)(=O)=O)cc2)c1C	1.34 µM	12.4 µM	7.89 µM	0.252 µM	0.0134 µM	0.0141 µM	388 µM	37.2%	59%	68.1%	fold change (FC) (A549 [9]): 7.82; Activity (A549 [10]): 4.95 ng/mL; Activity (A549 [11]): 28.74%; Activity (A549 [12]): 329.7 pg/mL; IC50 (HepG2 [6]): 72.4 µM; Activity (A549 [13]): 12.69 ng/mL; Activity (A549 [14]): 19.59%; Activity (A549 [15]): 23.54%; IC50 (HT-29): 87.4 µM; Activity (A549 [16]): 9.15%; fold change (FC) (A549 [17]): 0.51; Activity (A549 [18]): 31.22%; fold change (FC) (A549 [19]): 10.56; Activity (A549 [20]): 2.48%; Activity (A549 [21]): 31.61%; IC50 (A549 [7]): 28.5 µM; Activity (A549 [22]): 44.85%
C/C(=N\NC(N)=O)c1nnn(-c2ccc(S(=O)(=O)Nc3nccs3)cc2)c1C	6.52 µM	7.9 µM	> 100 µM	46.3 µM	> 100 µM	6.86 µM					
Cc1c(-c2nn(-c3ccccc3)cc2/C=N/O)nnn1-c1ccc(S(N)(=O)=O)cc1	1.91 µM	13.9 µM	> 100 µM	18.3 µM	> 100 µM	7.71 µM	450 µM	43.5%	12.5%		inhibition (A549 [5]): inactive
C/C(=N\NC(N)=S)c1nnn(-c2ccc(S(N)(=O)=O)cc2)c1C	1.51 µM	13 µM	7.27 µM	0.0835 µM	0.0153 µM		378 µM	36.1%		3.88%	inhibition (HepG2 [4]): inactive
C/C(=N\Nc1nc(-c2ccc(Cl)cc2)cs1)c1nnn(-c2ccc(C(=O)O)cc2)c1C	1.76 µM	10.9 µM	> 100 µM	0.551 µM	> 100 µM		461 µM	40.4%	1.41%	67%	IC50 (A549 [7]): 73.1 µM
C/C(=N\NC(N)=S)c1nnn(-c2ccc(Cl)cc2)c1C	5.33 µM	7.9 µM									
C/C(=N\Nc1nc(-c2ccc(Cl)cc2)cs1)c1nnn(-c2ccc(F)cc2)c1C	1.83 µM	11.9 µM					414 µM	33.5%	20.7%	11.9%	

More lines, main results first:

IC50 [1]	IC50 [2]	Ki (Carbonic anhydrase 9)	Ki (Carbonic anhydrase 1)	Ki (Carbonic anhydrase 12)	Ki (Carbonic anhydrase 2)	Structure (SMILES)	IC50 (WI-38)	inhibition at 100 µM (MCF7 [3])	inhibition at 100 µM (HepG2 [4])	inhibition at 100 µM (A549 [5])	further results
4.75 µM	7.3 µM					CC(=O)c1nnn(-c2ccc(F)cc2)c1C					
4.51 µM	6.9 µM					C/C(=N\NC(N)=O)c1nnn(-c2ccc(C(=O)O)cc2)c1C					
3.65 µM	7.9 µM					CC(=O)c1nnn(-c2ccc(Cl)cc2)c1C					
3.65 µM	7.6 µM	9.12 µM	0.073 µM	0.0826 µM	0.0079 µM	CC(=O)c1nnn(-c2ccc(S(N)(=O)=O)cc2)c1C	391 µM	17.7%	3.61%		inhibition (A549 [5]): inactive
6.84 µM	5.6 µM					C/C(=N\NC(N)=O)c1nnn(-c2ccc(Cl)cc2)c1C					
4.72 µM	5.8 µM	> 100 µM	51 µM	> 100 µM		CC(=O)c1nnn(-c2ccc(S(=O)(=O)Nc3nccs3)cc2)c1C					
4.72 µM	8.4 µM					C/C(=N\NC(N)=O)c1nnn(-c2ccc(F)cc2)c1C					
1.65 µM	11.6 µM	> 100 µM	> 100 µM	> 100 µM		C/C(=N\NC(N)=S)c1nnn(-c2ccc(C(=O)O)cc2)c1C	480 µM	46.6%			inhibition (HepG2 [4]): inactive; inhibition (A549 [5]): inactive
5.14 µM	6.4 µM					CC(=O)c1nnn(-c2ccc(C(=O)O)cc2)c1C					
2.42 µM	9.6 µM	> 100 µM	> 100 µM	> 100 µM	> 100 µM	C/C(=N\NC(N)=S)c1nnn(-c2ccc(F)cc2)c1C	406 µM	6.52%	19.8%		inhibition (A549 [5]): inactive
4.74 µM	5.9 µM	4.22 µM	0.213 µM	0.0198 µM	0.0164 µM	C/C(=N\NC(N)=O)c1nnn(-c2ccc(S(N)(=O)=O)cc2)c1C	365 µM	5.8%		18.2%	inhibition (HepG2 [4]): inactive
